Source: US11701372B2, “Inhalation formulations of 1'-cyano substituted carba-nucleoside analogs” (priority 2020, dated 2023)
Like-named read-outs stand apart in the source and are kept apart here.

Experiments:
[1] = assay type: physicochemical; conditions: for % assay/degs / Total degs / pH: T = 0
Method: For each condition, samples were staged at ambient and refrigerated conditions. Samples were analyzed for % assay/degs, appearance, reconstitution time, pH, and compared to T=0. The structures of the key impurities/metabolites are shown below.

[2] = In use testing of reconstituted solutions in IV bags and IV tubings; assay type: physicochemical
Text: The IV bags and IV tubings were sampled over time and tested for % assay/degradation.

in vivo [3] = experiment: in vivo; design: species or system African Green Monkeys; conditions: monkey, iv, 10 mg/kg
in vivo [4] = conditions: both, monkey, inhaled or intranasal
Method: The average deposited dose was calculated at 0.168 mg/kg and 0.536 mg/kg, respectively. Plasma, peripheral blood mononuclear cells (PBMCs), trachea, bronchi, lung lobe, liver, kidney, nasal mucosa and nasopharyngeal mucosa samples were collected in this study.

CCC(CC)COC(=O)[C@H](C)N[P@](=O)(OC[C@H]1O[C@@](C#N)(c2ccc3c(N)ncnn23)[C@H](O)[C@@H]1O)Oc1ccccc1 [Formula Ia, (S)-2-ethylbutyl 2-(((S)-(((2R,3S,4R,5R)-5-(4-aminopyrrolo[2,1-f][1,2,4]triazin-7-yl)-5-cyano-3,4-dihydroxytetrahydrofuran-2-yl)methoxy)(phenoxy)phosphoryl)amino)propanoate]
pH, difference from T = 0 ([1]; pH 3.5, Ambient, 2 h): 0.0 | % assay/degs, difference from T = 0 ([1]; pH 3.5, Ambient, 8 h): 0.2% | Total degs, difference from T = 0 ([1]; pH 3.5, Ambient, 8 h): 0.0% | pH, difference from T = 0 ([1]; pH 3.5, Ambient, 8 h): 0.0 | % assay/degs, difference from T = 0 ([1]; pH 3.5, Ambient, 24 h): 0.6% | Total degs, difference from T = 0 ([1]; pH 3.5, Ambient, 24 h): 0.0% | pH, difference from T = 0 ([1]; pH 3.5, Ambient, 24 h): 0.0 | % assay/degs, difference from T = 0 ([1]; pH 3.5, Ambient, 48 h): 0.3% | Total degs, difference from T = 0 ([1]; pH 3.5, Ambient, 48 h): 0.1% | pH, difference from T = 0 ([1]; pH 3.5, Ambient, 48 h): 0.0 | % assay/degs, difference from T = 0 ([1]; pH 3.5, Ambient, 72 h): 0.2% | Total degs, difference from T = 0 ([1]; pH 3.5, Ambient, 72 h): 0.1% | pH, difference from T = 0 ([1]; pH 3.5, Ambient, 72 h): −0.1 | % assay/degs, difference from T = 0 ([1]; pH 3.5, Ambient, 96 h): 0.0% | Total degs, difference from T = 0 ([1]; pH 3.5, Ambient, 96 h): 0.1% | pH, difference from T = 0 ([1]; pH 3.5, Ambient, 96 h): 0.0 | % assay/degs, difference from T = 0 ([1]; pH 3.5, Ambient, 168 h): 0.2% | Total degs, difference from T = 0 ([1]; pH 3.5, Ambient, 168 h): 0.2% | pH, difference from T = 0 ([1]; pH 3.5, Ambient, 168 h): 0.0 | % assay/degs ([1]; pH 3.5): 99.1% | Total degs ([1]; pH 3.5): 0.1% | pH ([1]; pH 3.5): 3.5 | % assay/degs, difference from T = 0 ([1]; pH 3.8, 2-8° C., 7.2 h): −0.2% | Total degs, difference from T = 0 ([1]; pH 3.8, 2-8° C., 7.2 h): 0.0% | pH, difference from T = 0 ([1]; pH 3.8, 2-8° C., 7.2 h): −0.1 | % assay/degs, difference from T = 0 ([1]; pH 3.8, 2-8° C., 24 h): 0.3% | Total degs, difference from T = 0 ([1]; pH 3.8, 2-8° C., 24 h): 0.0% | pH, difference from T = 0 ([1]; pH 3.8, 2-8° C., 24 h): 0.0 | % assay/degs, difference from T = 0 ([1]; pH 3.8, 2-8° C., 96 h): 0.1% | Total degs, difference from T = 0 ([1]; pH 3.8, 2-8° C., 96 h): 0.0% | pH, difference from T = 0 ([1]; pH 3.8, 2-8° C., 96 h): −0.1 | % assay/degs, difference from T = 0 ([1]; pH 3.8, 2-8° C., 168 h): 0.1% | Total degs, difference from T = 0 ([1]; pH 3.8, 2-8° C., 168 h): 0.0% | pH, difference from T = 0 ([1]; pH 3.8, 2-8° C., 168 h): −0.1 | % assay/degs, difference from T = 0 ([1]; pH 3.8, Ambient, 7.2 h): 0.0% | Total degs, difference from T = 0 ([1]; pH 3.8, Ambient, 7.2 h): 0.0% | pH, difference from T = 0 ([1]; pH 3.8, Ambient, 7.2 h): 0.0 | % assay/degs, difference from T = 0 ([1]; pH 3.8, Ambient, 24 h): 0.4% | Total degs, difference from T = 0 ([1]; pH 3.8, Ambient, 24 h): 0.0% | pH, difference from T = 0 ([1]; pH 3.8, Ambient, 24 h): 0.0 | % assay/degs, difference from T = 0 ([1]; pH 3.8, Ambient, 96 h): 0.0% | Total degs, difference from T = 0 ([1]; pH 3.8, Ambient, 96 h): 0.1% | pH, difference from T = 0 ([1]; pH 3.8, Ambient, 96 h): −0.1 | % assay/degs, difference from T = 0 ([1]; pH 3.8, Ambient, 168 h): 0.0% | Total degs, difference from T = 0 ([1]; pH 3.8, Ambient, 168 h): 0.1% | pH, difference from T = 0 ([1]; pH 3.8, Ambient, 168 h): −0.1 | % assay/degs ([1]; pH 3.8): 98.7% | Total degs ([1]; pH 3.8): 0.1% | pH ([1]; pH 3.8): 3.8 | % assay/degs, difference from T = 0 ([1]; pH 4.0, 2-8° C., 7.2 h): 0.0% | Total degs, difference from T = 0 ([1]; pH 4.0, 2-8° C., 7.2 h): 0.0% | pH, difference from T = 0 ([1]; pH 4.0, 2-8° C., 7.2 h): 0.0 | % assay/degs, difference from T = 0 ([1]; pH 4.0, 2-8° C., 24 h): 0.3% | Total degs, difference from T = 0 ([1]; pH 4.0, 2-8° C., 24 h): 0.0% | pH, difference from T = 0 ([1]; pH 4.0, 2-8° C., 24 h): 0.0 | % assay/degs, difference from T = 0 ([1]; pH 4.0, 2-8° C., 96 h): 0.2% | Total degs, difference from T = 0 ([1]; pH 4.0, 2-8° C., 96 h): 0.0% | pH, difference from T = 0 ([1]; pH 4.0, 2-8° C., 96 h): 0.0 | % assay/degs, difference from T = 0 ([1]; pH 4.0, 2-8° C., 168 h): 0.6% | Total degs, difference from T = 0 ([1]; pH 4.0, 2-8° C., 168 h): 0.0% | pH, difference from T = 0 ([1]; pH 4.0, 2-8° C., 168 h): −0.1 | % assay/degs, difference from T = 0 ([1]; pH 4.0, Ambient, 7.2 h): 0.3% | Total degs, difference from T = 0 ([1]; pH 4.0, Ambient, 7.2 h): 0.0% | pH, difference from T = 0 ([1]; pH 4.0, Ambient, 7.2 h): 0.0 | % assay/degs, difference from T = 0 ([1]; pH 4.0, Ambient, 24 h): 0.3% | Total degs, difference from T = 0 ([1]; pH 4.0, Ambient, 24 h): 0.0% | pH, difference from T = 0 ([1]; pH 4.0, Ambient, 24 h): 0.0 | % assay/degs, difference from T = 0 ([1]; pH 4.0, Ambient, 96 h): 0.0% | Total degs, difference from T = 0 ([1]; pH 4.0, Ambient, 96 h): 0.1% | pH, difference from T = 0 ([1]; pH 4.0, Ambient, 96 h): 0.0 | % assay/degs, difference from T = 0 ([1]; pH 4.0, Ambient, 168 h): −0.2% | Total degs, difference from T = 0 ([1]; pH 4.0, Ambient, 168 h): 0.1% | pH, difference from T = 0 ([1]; pH 4.0, Ambient, 168 h): −0.1 | % assay/degs ([1]; pH 4.0): 98.6% | Total degs ([1]; pH 4.0): 0.1% | pH ([1]; pH 4.0): 4.0 | Total degradation ([2]; 0 h, 0.3 mg/mL): 0.2 % w/w | Total degradation ([2]; 0 h, 2 mg/mL): 0.2 % w/w | Total degradation ([2]; 4 h, 0.3 mg/mL): 0.2 % w/w | Total degradation ([2]; 4 h, 2 mg/mL): 0.2 % w/w | Total degradation ([2]; 6 h, 0.3 mg/mL): 0.2 % w/w | Total degradation ([2]; 6 h, 2 mg/mL): 0.2 % w/w | Total degradation ([2]; 8 h, 0.3 mg/mL): 0.2 % w/w | Total degradation ([2]; 8 h, 2 mg/mL): 0.2 % w/w | Total degradation ([2]; 24 h, 0.3 mg/mL): 0.2 % w/w | Total degradation ([2]; 24 h, 2 mg/mL): 0.2 % w/w | Total degradation ([2]; 48 h, 0.3 mg/mL): 0.2 % w/w | Total degradation ([2]; 48 h, 2 mg/mL): 0.2 % w/w | AUC(0-t) (in vivo [3]): 7.26 µM·h | AUC(0-t) (in vivo [4]; 0.168 mg/kg): 0.023 ± 0.008 µM·h | Cmax (in vivo [4]; 0.168 mg/kg): 39 ± 14 nM | Tmax (in vivo [4]; 0.168 mg/kg): 0.52 h | AUC(0-t) (in vivo [4]; 0.536 mg/kg): 0.146 ± 0.045 µM·h | Cmax (in vivo [4]; 0.536 mg/kg): 101 ± 19 nM | Tmax (in vivo [4]; 0.536 mg/kg): 1.53 h
